Target: T1, ΔF508-CFTR (Homo sapiens, UniProt P13569, DEL508-508)
T1 construct: expressed in transfected cells
Assay: Membrane potential optical assay (FRET/VIPR), identification of correction compounds
Format: cell-based
Details: for Emax: relative efficacy
In short: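 NIH3T3 cells stably expressing ΔF508-CFTR incubated 16 hrs at 37° C in serum-free medium with test compound; 27° C incubation as positive control. CFTR then activated with 10 μM forskolin plus 20 μM genistein in Cl^−-free medium; depolarization read by DiSBAC2(3)/CC2-DMPE FRET on VIPR.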

T1 sequence (P13569 with tags, fused parts or gaps DEL508-508): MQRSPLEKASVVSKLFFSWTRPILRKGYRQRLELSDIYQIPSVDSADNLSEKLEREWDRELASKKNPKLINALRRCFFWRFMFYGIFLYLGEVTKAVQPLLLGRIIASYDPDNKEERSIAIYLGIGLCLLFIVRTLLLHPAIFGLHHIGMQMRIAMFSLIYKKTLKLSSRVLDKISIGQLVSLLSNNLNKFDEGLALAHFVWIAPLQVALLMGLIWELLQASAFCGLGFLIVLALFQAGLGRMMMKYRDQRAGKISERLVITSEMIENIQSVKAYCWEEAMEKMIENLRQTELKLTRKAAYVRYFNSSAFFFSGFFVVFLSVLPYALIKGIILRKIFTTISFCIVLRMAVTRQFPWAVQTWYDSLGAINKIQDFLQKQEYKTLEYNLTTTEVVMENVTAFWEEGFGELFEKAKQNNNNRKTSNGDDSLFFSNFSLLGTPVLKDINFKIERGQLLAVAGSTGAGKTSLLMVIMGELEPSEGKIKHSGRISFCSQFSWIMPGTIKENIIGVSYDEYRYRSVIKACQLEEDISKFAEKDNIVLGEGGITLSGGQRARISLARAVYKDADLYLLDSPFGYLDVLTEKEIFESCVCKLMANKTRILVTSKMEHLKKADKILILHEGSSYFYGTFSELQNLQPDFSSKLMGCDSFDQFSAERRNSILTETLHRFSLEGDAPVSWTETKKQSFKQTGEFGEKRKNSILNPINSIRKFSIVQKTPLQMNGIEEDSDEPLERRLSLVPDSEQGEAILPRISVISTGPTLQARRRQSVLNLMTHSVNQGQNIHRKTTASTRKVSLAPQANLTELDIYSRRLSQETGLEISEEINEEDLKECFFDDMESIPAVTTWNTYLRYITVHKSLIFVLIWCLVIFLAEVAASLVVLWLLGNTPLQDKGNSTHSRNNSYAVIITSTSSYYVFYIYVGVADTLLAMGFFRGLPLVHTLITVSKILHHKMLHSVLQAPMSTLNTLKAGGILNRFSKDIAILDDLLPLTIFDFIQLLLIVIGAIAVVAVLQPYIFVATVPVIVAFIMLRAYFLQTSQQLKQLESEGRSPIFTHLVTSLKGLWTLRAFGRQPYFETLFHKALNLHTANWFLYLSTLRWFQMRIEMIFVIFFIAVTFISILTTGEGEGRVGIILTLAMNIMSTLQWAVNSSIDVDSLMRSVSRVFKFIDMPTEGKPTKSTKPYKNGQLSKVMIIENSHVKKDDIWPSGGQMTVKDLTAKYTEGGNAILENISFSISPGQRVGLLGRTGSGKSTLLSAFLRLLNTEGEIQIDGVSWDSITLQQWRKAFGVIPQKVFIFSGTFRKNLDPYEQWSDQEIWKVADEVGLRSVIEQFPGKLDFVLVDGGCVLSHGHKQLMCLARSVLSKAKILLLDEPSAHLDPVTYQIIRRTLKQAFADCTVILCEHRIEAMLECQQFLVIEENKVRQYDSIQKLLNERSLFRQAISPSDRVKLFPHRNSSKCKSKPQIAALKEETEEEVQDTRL

| Structure (SMILES) | EC50 | Emax |
| --- | --- | --- |
| CC(c1nc2ccccc2c(=O)n1C)N1CCN(S(=O)(=O)c2ccc3oc(=O)ccc3c2)CC1 (stereo not shown) [compound 252] | 25 to 60 µM | 25 to 100% |
| CC(c1nc2ccccc2c(=O)n1C)N1CCN(S(=O)(=O)c2ccccc2F)CC1 (stereo not shown) [compound 253] | 25 to 60 µM | 25 to 100% |
| CC(c1nc2ccccc2c(=O)n1C)N1CCN(S(=O)(=O)c2c(Cl)ccc3nonc23)CC1 (stereo not shown) [compound 254] | < 10 µM | 25 to 100% |
| CC(c1nc2ccccc2c(=O)n1C)N1CCN(S(=O)(=O)c2ccc(Oc3ccccc3)cc2)CC1 (stereo not shown) [compound 255] | 25 to 60 µM | < 25% |
| COC(=O)c1sccc1S(=O)(=O)N1CCN(C(C)c2nc3ccccc3c(=O)n2C)CC1 (stereo not shown) [compound 256] | 25 to 60 µM | < 25% |
| Cc1nn(C)c(Cl)c1S(=O)(=O)N1CCN(C(C)c2nc3ccccc3c(=O)n2C)CC1 (stereo not shown) [compound 257] | 25 to 60 µM | < 25% |
| CC(c1nc2ccccc2c(=O)n1C)N1CCN(S(=O)(=O)c2ccc(-c3cc(C(F)(F)F)nn3C)s2)CC1 (stereo not shown) [compound 258] | 25 to 60 µM | < 25% |
| CC(c1nc2ccccc2c(=O)n1C)N1CCN(S(=O)(=O)c2ccccc2C#N)CC1 (stereo not shown) [compound 259] | 25 to 60 µM | < 25% |
| CC(c1nc2ccccc2c(=O)n1C)N1CCN(S(=O)(=O)c2ccc(Cl)s2)CC1 (stereo not shown) [compound 260] | 10 to 25 µM | 25 to 100% |
| CC(c1nc2ccccc2c(=O)n1C)N1CCN(S(=O)(=O)c2ccc(-c3cc(C(F)(F)F)on3)s2)CC1 (stereo not shown) [compound 261] | 25 to 60 µM | 25 to 100% |
| CC(c1nc2ccccc2c(=O)n1C)N1CCN(S(=O)(=O)c2ccc(S(C)(=O)=O)cc2)CC1 (stereo not shown) [compound 262] | 25 to 60 µM | < 25% |
| CC(c1nc2ccccc2c(=O)n1C)N1CCN(S(=O)(=O)c2cc(S(=O)(=O)c3ccccc3)cs2)CC1 (stereo not shown) [compound 263] | 25 to 60 µM | < 25% |
| CC(c1nc2ccccc2c(=O)n1C)N1CCN(S(=O)(=O)c2cccc3nonc23)CC1 (stereo not shown) [compound 264] | 25 to 60 µM | < 25% |
| CC(c1nc2ccccc2c(=O)n1C)N1CCN(S(=O)(=O)c2ccc(S(=O)(=O)c3ccccc3)s2)CC1 (stereo not shown) [compound 265] | 25 to 60 µM | < 25% |
| Cc1noc(C)c1S(=O)(=O)N1CCN(C(C)c2nc3ccccc3c(=O)n2C)CC1 (stereo not shown) [compound 266] | 25 to 60 µM | < 25% |
| CC(c1nc2ccccc2c(=O)n1C)N1CCN(S(=O)(=O)c2ccc(Oc3ccccc3)nc2)CC1 (stereo not shown) [compound 267] | 25 to 60 µM | < 25% |
| CC(c1nc2ccccc2c(=O)n1C)N1CCN(S(=O)(=O)c2c(Cl)nc3sccn23)CC1 (stereo not shown) [compound 268] | 25 to 60 µM | < 25% |
| CC(c1nc2ccccc2c(=O)n1C)N1CCN(S(=O)(=O)c2ccc(-c3ccon3)s2)CC1 (stereo not shown) [compound 269] | 25 to 60 µM | < 25% |
| Cc1c(S(=O)(=O)N2CCN(C(C)c3nc4ccccc4c(=O)n3C)CC2)sc2ccc(Cl)cc12 (stereo not shown) [compound 270] | 25 to 60 µM | < 25% |
| CC(c1nc2ccccc2c(=O)n1C)N1CCN(S(=O)(=O)c2ccc(Cl)c3nonc23)CC1 (stereo not shown) [compound 271] | 25 to 60 µM | < 25% |
| CC(c1nc2ccccc2c(=O)n1C)N1CCN(S(=O)(=O)c2csc3ccccc23)CC1 (stereo not shown) [compound 272] | < 10 µM | 25 to 100% |

| Structure (SMILES) | EC50 | Emax |
| --- | --- | --- |
| CC(C)c1ccc(S(=O)(=O)N2CCN(C(C)c3nc4ccccc4c(=O)n3C)CC2)cc1 (stereo not shown) [compound 273] | 25 to 60 µM | < 25% |
| CC(c1nc2ccccc2c(=O)n1C)N1CCN(S(=O)(=O)c2cccs2)CC1 (stereo not shown) [compound 274] | 25 to 60 µM | < 25% |
| CC(c1nc2ccccc2c(=O)n1C)N1CCN(S(=O)(=O)c2ccc(-c3cc(C(F)(F)F)n(C)n3)s2)CC1 (stereo not shown) [compound 275] | 25 to 60 µM | < 25% |
| CC(c1nc2ccccc2c(=O)n1C)N1CCN(S(=O)(=O)c2cccc3cccnc23)CC1 (stereo not shown) [compound 276] | 25 to 60 µM | < 25% |
| CSc1nccc(-c2ccc(S(=O)(=O)N3CCN(C(C)c4nc5ccccc5c(=O)n4C)CC3)s2)n1 (stereo not shown) [compound 277] | 25 to 60 µM | < 25% |
| CC(c1nc2ccccc2c(=O)n1C)N1CCN(S(=O)(=O)Cc2ccccc2)CC1 (stereo not shown) [compound 278] | 25 to 60 µM | < 25% |
| CC(c1nc2ccccc2c(=O)n1C)N1CCN(S(=O)(=O)c2cccc(C#N)c2)CC1 (stereo not shown) [compound 279] | 25 to 60 µM | < 25% |
| CC(c1nc2ccccc2c(=O)n1C)N1CCN(S(=O)(=O)c2ccc(-c3csnn3)s2)CC1 (stereo not shown) [compound 280] | 10 to 25 µM | < 25% |
| CC(c1nc2ccccc2c(=O)n1C)N1CCN(S(=O)(=O)c2ccc(-c3ccccn3)s2)CC1 (stereo not shown) [compound 281] | 25 to 60 µM | < 25% |
| CC(c1nc2ccccc2c(=O)n1C)N1CCN(S(=O)(=O)c2cccc3nsnc23)CC1 (stereo not shown) [compound 282] | 25 to 60 µM | < 25% |
| COc1cc2nc(C(C)N3CCN(S(=O)(=O)c4ccc(Cl)cc4)CC3)n(C)c(=O)c2cc1OC (stereo not shown) [compound 283] | 25 to 60 µM | 25 to 100% |
| COc1cc2nc(C(C)N3CCN(S(=O)(=O)c4ccc(Br)cc4)CC3)n(C)c(=O)c2cc1OC (stereo not shown) [compound 284] | 25 to 60 µM | 25 to 100% |
| COc1ccc(S(=O)(=O)N2CCN(C(C)c3nc4cc(OC)c(OC)cc4c(=O)n3C)CC2)cc1 (stereo not shown) [compound 285] | 25 to 60 µM | 25 to 100% |
| COc1cc2nc(C(C)N3CCN(S(=O)(=O)c4ccc(C)cc4)CC3)n(C)c(=O)c2cc1OC (stereo not shown) [compound 286] | 25 to 60 µM | 25 to 100% |
| CC(=O)NCCn1c(C(C)N2CCN(S(=O)(=O)c3ccc(Br)cc3)CC2)nc2ccccc2c1=O (stereo not shown) [compound 287] | 25 to 60 µM | 25 to 100% |
| COc1ccc(S(=O)(=O)N2CCN(C(C)c3nc4ccccc4c(=O)n3CCNC(C)=O)CC2)cc1 (stereo not shown) [compound 288] | 25 to 60 µM | < 25% |
| CC(=O)NCCn1c(C(C)N2CCN(S(=O)(=O)c3ccc(Cl)cc3)CC2)nc2ccccc2c1=O (stereo not shown) [compound 289] | 25 to 60 µM | 25 to 100% |
| Cc1c(S(=O)(=O)N2CCN(C(C)c3nc4ccccc4c(=O)n3C)CC2)sc2ccc(F)cc12 (stereo not shown) [compound 290] | 25 to 60 µM | 25 to 100% |
| CC(c1nc2ccccc2c(=O)n1C)N1CCN(S(=O)(=O)c2ccc(C(N)=O)cc2)CC1 (stereo not shown) [compound 291] | 25 to 60 µM | < 25% |
| CC(c1nc2ccccc2c(=O)n1C)N1CCN(S(=O)(=O)N(C)C)CC1 (stereo not shown) [compound 292] | 25 to 60 µM | < 25% |
| CC(c1nc2ccccc2c(=O)n1C)N1CCN(S(=O)(=O)c2ccc(OC(F)F)cc2)CC1 (stereo not shown) [compound 293] | 25 to 60 µM | > 100% |

| Structure (SMILES) | EC50 | Emax |
| --- | --- | --- |
| COc1ccc(S(=O)(=O)N2CCN(C(C)c3nc(OCC4COCO4)c4ccccc4n3)CC2)cc1 (stereo not shown) [compound 294] | 25 to 60 µM | 25 to 100% |
| COCCOc1nc(C(C)N2CCN(S(=O)(=O)c3ccc(OC)cc3)CC2)nc2ccccc12 (stereo not shown) [compound 295] | 25 to 60 µM | 25 to 100% |
| COc1ccc(S(=O)(=O)N2CCN(C(C)c3nc(OCC4(C)COCOC4)c4ccccc4n3)CC2)cc1 (stereo not shown) [compound 296] | 10 to 25 µM | > 100% |
| COc1ccc(S(=O)(=O)N2CCN(C(C)c3nc(Oc4ccncc4)c4ccccc4n3)CC2)cc1 (stereo not shown) [compound 297] | < 10 µM | 25 to 100% |
| COc1ccc(S(=O)(=O)N2CCN(C(C)c3nc(OC4CCCCC4)c4ccccc4n3)CC2)cc1 (stereo not shown) [compound 298] | < 10 µM | > 100% |
| COc1ccc(S(=O)(=O)N2CCN(C(C)c3nc(OCCN4CCCC4)c4ccccc4n3)CC2)cc1 (stereo not shown) [compound 299] | 10 to 25 µM | 25 to 100% |
| COc1ccc(S(=O)(=O)N2CCN(C(C)c3nc(OC4CCOCC4)c4ccccc4n3)CC2)cc1 (stereo not shown) [compound 300] | 25 to 60 µM | > 100% |
| COc1ccc(S(=O)(=O)N2CCN(C(C)c3nc(OCCN(C)C)c4ccccc4n3)CC2)cc1 (stereo not shown) [compound 301] | 25 to 60 µM | 25 to 100% |
| COc1ccc(S(=O)(=O)N2CCN(C(C)c3nc(N4CCCCC4)c4ccccc4n3)CC2)cc1 (stereo not shown) [compound 302] | < 10 µM | > 100% |
| COc1ccc(S(=O)(=O)N2CCN(C(C)c3nc(NC4CCCC4)c4ccccc4n3)CC2)cc1 (stereo not shown) [compound 303] | < 10 µM | > 100% |
| COc1ccc(S(=O)(=O)N2CCN(C(C)c3nc(NC4CCCCC4)c4ccccc4n3)CC2)cc1 (stereo not shown) [compound 304] | < 10 µM | 25 to 100% |
| COc1ccc(S(=O)(=O)N2CCN(C(C)c3nc(N4CCCC(C)C4)c4ccccc4n3)CC2)cc1 (stereo not shown) [compound 305] | < 10 µM | 25 to 100% |
| CC(c1nc2ccccc2c(=O)n1C)N(C)C1CCN(S(=O)(=O)c2ccc(Br)cc2)CC1 (stereo not shown) [compound 306] | 25 to 60 µM | 25 to 100% |
| COc1ccc(S(=O)(=O)Nc2ccc(NC(C)c3nc4ccccc4c(=O)n3C)cc2)cc1 (stereo not shown) [compound 307] | 25 to 60 µM | 25 to 100% |
| CC(Nc1ccc(NS(=O)(=O)c2ccc(Cl)cc2)cc1)c1nc2ccccc2c(=O)n1C (stereo not shown) [compound 308] | < 10 µM | 25 to 100% |
| CC(Nc1ccc(NS(=O)(=O)c2ccc(Br)cc2)cc1)c1nc2ccccc2c(=O)n1C (stereo not shown) [compound 309] | < 10 µM | 25 to 100% |
| COc1ccc(S(=O)(=O)N2CCN(C(C)c3nc(C(C)C)c4ccccc4n3)CC2)cc1 (stereo not shown) [compound 310] | < 10 µM | 25 to 100% |
| COc1ccc(S(=O)(=O)N2CCN(C(C)c3nc(OC(C)(C)C)c4ccccc4n3)CC2)cc1 (stereo not shown) [compound 311] | < 10 µM | > 100% |
| COc1ccc(S(=O)(=O)N2CCN(C(C)c3ncc4ccccc4n3)CC2)cc1 (stereo not shown) [compound 312] | 25 to 60 µM | 25 to 100% |
| CC(c1ncc2ccccc2n1)N1CCN(S(=O)(=O)c2ccc(Br)cc2)CC1 (stereo not shown) [compound 313] | 25 to 60 µM | 25 to 100% |
